Here are results for 24 compounds from PMC10688702, “The indole motif is essential for the antitrypanosomal activity of N^5-substituted paullones” (PLOS ONE, 2023).

Molecules are shown by their SMILES. Structures can show the parent of a compound that is named as a salt.

For assay [1], the target named is trypanothione synthetase of L. infantum (LiTryS) (Leishmania infantum, UniProt A4I2Z3). Briefly: TryS activity screening assay on recombinant LiTryS. It is filed as biochemical. The conditions noted are these: read-out: LiTryS activity [% at 30 μM]. As to the method: TryS from different trypanosomatids was produced in recombinant form with an N-terminal His-tag. The constructs pET-15b TbTryS and pET-28c(+)LiTryS were used to express TryS of T. b. brucei 427 (MITat1.4, GenBank accession protein id CAC87573.1), and L. infantum JPCM5 (GenBank accession protein id CAM69145.1). E. coli strain BL21 (DE3) served as the expression host. For TbTryS, the cells were cultured in a medium based in Terrific Broth and induction with isopropyl 1-thio-β-D-galactopyranoside (IPTG), while for LiTryS, the cells were cultured in ZYM-5052 auto-induction medium. For a detailed description of the expression, see Benítez et al.. The purification was performed by immobilised metal affinity chromatography in a HisTrap Fast Flow column (GE Healthcare) followed by size exclusion chromatography. […] The fractions containing recombinant TryS with ≥95% purity were pooled and concentrated to >10 mg protein/mL using a 10 kDa cut-off Amicon filter (Millipore, Billerica, CA). Glycerol was added at a final concentration of 40% (v/v). The samples were stored at -80°C. Enzyme purity and activity were assessed by SDS-PAGE (12%) under reducing conditions and by the end-point TryS assay (see TryS activity screening assay), respectively. Protein concentration was determined using the bicinchoninic acid assay with bovine serum albumin as standard. The protocols yielded 25–30 mg TbTryS or LiTryS per litre of culture medium and homogeneous specific activity.
For all TryS, ATP was used at 150 μM because of a high background signal at higher concentrations and Spd fixed at 2 mM, in agreement with the intracellular levels calculated from data reported in the literature for trypanosomatids. GSH was adjusted to 0.05 and 0.25 mM for TbTryS and LiTryS, respectively, to avoid substrate inhibition or to approach physiological concentrations. […] Microtiter plate wells were loaded with 5 μL of the test compound, DMSO (reaction control) or a TryS specific inhibitor (inhibition control) and 40 μL of MM solution. The reactions were then started by adding 5 μL of TryS (2 and 3*10^−5 μmol*min^-1*mL^-1 for LiTryS and TbTryS, respectively) and stopped after 15 min with 200 μL BIOMOL® GREEN reagent (Enzo Life Sciences). The compounds used as inhibition control were added at concentrations that inhibited 50% TryS activity: 30 μM and 150 nM MOL2008 for TbTryS and LiTryS, respectively. Blanks were prepared for each condition by adding 5 μL of screening reaction buffer instead of the enzyme. The TryS activity is calculated as follows: TrySactivity%=A650nmCi-A650nmCiB/A650nmE-A650nmEB*100%
A650 nm Ci is the mean absorbance at 650 nm for the reaction test with compound I (Ci), A650 nm CiB is the mean absorbance at 650 nm for the blank control with compound I (CiB), A650 nm E is the mean absorbance at 650 nm for the reaction control with DMSO (E) and A650 nm EB is the mean absorbance at 650 nm for the blank control with DMSO (EB). The errors were expressed as 2 standard deviations (SD), SD estimated as σ^n−1.

The subject of assay [2] is L. infantum amastigotes (intracellular, in J774.A1 macrophages). In words: Viability assay for L. infantum amastigotes. Format: cell-based. The conditions noted are these: Leishmania infantum, J774.A1, 24 h, read-out: L. infantum amastigote viability [% at 20 μM]. As to the method:
Viability assay for L. infantum amastigotes. L. infantum promastigotes from the reference strain MHOM/MA/67/ITMAP263, stably transfected with a vector encoding a red-shifted luciferase gene (RE9HLUC; Branchini et al.; Benítez et al.) were grown in fresh complete RPMI medium (RPMI basic medium containing 25 mM HEPES, 10% v/v iFBS, 100 U/mL penicillin, 100 μg/mL streptomycin and 15 μg/mL hygromycin B) at 28°C in sealed culture flasks. Metacyclic promastigotes were obtained by a negative selection procedure using peanut agglutinin and used to infect murine macrophages (cell line J774.A1) at a 1:10 ratio for macrophages (5×10^6 cells): parasites (5×10^7 cells). 200 μL of this suspension was added per well to a 96-well culture microplate, which was then incubated at 37°C for 24 h in a 5% CO2/95% air atmosphere incubator. […] The culture microplate was incubated in the CO2 incubator for additional 24 h. Next, the supernatant was removed and the microplate wells were washed with pre-warmed PBS (200 μL). […] All conditions were tested in triplicates and the percentage amastigote viability was calculated as described for infective T. b. brucei, with errors expressed as one SD, estimated as σ^n-1.
A macrophage cell density correction factor based on the incorporation of propidium iodide was calculated and applied to normalise amastigote viability related to host cell density in the well. For a detailed explanation of the protocol, see Benítez et al..

trypanothione synthetase of L. infantum (LiTryS), sequence (A4I2Z3 entry or part of it): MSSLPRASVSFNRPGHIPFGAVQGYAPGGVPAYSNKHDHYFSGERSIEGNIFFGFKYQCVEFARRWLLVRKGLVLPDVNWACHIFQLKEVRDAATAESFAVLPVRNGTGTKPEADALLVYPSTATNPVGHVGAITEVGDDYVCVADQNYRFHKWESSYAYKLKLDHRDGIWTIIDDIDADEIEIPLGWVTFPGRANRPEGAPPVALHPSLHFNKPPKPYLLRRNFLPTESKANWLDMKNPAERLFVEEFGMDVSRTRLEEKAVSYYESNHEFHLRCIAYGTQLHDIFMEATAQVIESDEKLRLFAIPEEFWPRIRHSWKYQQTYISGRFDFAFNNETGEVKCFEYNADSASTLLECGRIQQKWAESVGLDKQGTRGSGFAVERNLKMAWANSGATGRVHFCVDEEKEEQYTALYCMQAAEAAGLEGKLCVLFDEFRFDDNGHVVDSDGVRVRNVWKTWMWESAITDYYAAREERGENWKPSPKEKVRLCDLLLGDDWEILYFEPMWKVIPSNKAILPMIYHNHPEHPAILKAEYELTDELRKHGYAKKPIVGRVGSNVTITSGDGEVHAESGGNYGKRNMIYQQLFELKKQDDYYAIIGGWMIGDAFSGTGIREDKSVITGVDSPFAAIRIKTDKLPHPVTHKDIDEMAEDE

For orientation: viability means a read-out of living cells in per cent, often relative to untreated cells. For `CC(C)(C)OC(=O)N1CCN(CCNC(=O)CN2C(=O)CCCc3ccccc32)CC1` [2b, tert-Butyl 4-{2-[2-(2-oxo-2,3,4,5-tetrahydro-1H-benzo[b]azepin-1-yl)acetamido]ethyl}piperazine-1-carboxylate], the activity at 30 µM in assay [1] stood at 91.4 ± 3.1%. Moreover, the viability at 20 µM in assay [2] is 89.5 ± 9.9%. For `CC(C)(C)OC(=O)NCCNC(=O)CN1C(=O)CCCc2ccccc21` [2c, tert-Butyl {2-[2-(2-oxo-2,3,4,5-tetrahydro-1H-benzo[b]azepin-1-yl)acetamido]ethyl}carbamate], the activity at 30 µM in assay [1] turned out to be 96.7 ± 7.5%. Still for that read-out and setting: then `CC(C)(C)OC(=O)N1CCN(C(=O)CN2C(=O)CCCc3ccccc32)CC1` [2d, tert-Butyl 4-[2-(2-oxo-2,3,4,5-tetrahydro-1H-benzo[b]azepin-1-yl)acetyl]piperazine-1-carboxylate], with 108 ± 14.6%; and `CN(CCNC(=O)CN1C(=O)CCCc2ccccc21)C(=O)OC(C)(C)C` [2e, tert-Butyl methyl-{2-[2-(2-oxo-2,3,4,5-tetrahydro-1H-benzo[b]azepin-1-yl)acetamido]ethyl}carbamate], with 92.5 ± 37.2%; and `CC(C)(C)OC(=O)NCCCCNC(=O)CN1C(=O)CCCc2ccccc21` [2f, tert-Butyl {4-[2-(2-oxo-2,3,4,5-tetrahydro-1H-benzo[b]azepin-1-yl)acetamido]butyl}carbamate], with 83.6 ± 8.7%. In the case of `CC(C)(C)OC(=O)NC1CCN(C(=O)CN2C(=O)CCCc3ccccc32)CC1` [2g, tert-Butyl {1-[2-(2-oxo-2,3,4,5-tetrahydro-1H-benzo[b]azepin-1-yl)acetyl]piperidine-4-yl}carbamate], in assay [1], the activity at 30 µM amounted to 93.3 ± 6.1%. On the same count and under the same terms, then `O=C(CN1C(=O)CCCc2ccccc21)N1CCOCC1` [2h, 1-(2-Morpholino-2-oxoethyl)-1,3,4,5-tetrahydro-2H-benzo[b]azepin-2-one], with 92.7 ± 9.2%; and `O=C(CN1C(=O)CCCc2ccccc21)N1CCCCC1` [2i, 1-[2-Oxo-2-(piperidin-1-yl)ethyl]-1,3,4,5-tetrahydro-2H-benzo[b]azepin-2-one], with 89.4 ± 4.6%; and `CCN(CC)C(=O)CN1C(=O)CCCc2ccccc21` [2k, N,N-Diethyl-2-(2-oxo-2,3,4,5-tetrahydro-1H-benzo[b]azepin-1-yl)acetamide], with 92.9 ± 6.4%.

As to `NCCNC(=O)CN1C(=O)CCCc2ccccc21` [2p, N-(2-Aminoethyl)-2-(2-oxo-2,3,4,5-tetrahydro-1H-benzo[b]azepin-1-yl)acetamide hydrochloride], the activity at 30 µM in assay [1] amounted to 82.4 ± 9.5%. Still for that read-out and setting: with `CNCCNC(=O)CN1C(=O)CCCc2ccccc21` [2r, N-[2-(Methylamino)ethyl]-2-(2-oxo-2,3,4,5-tetrahydro-1H-benzo[b]azepin-1-yl)acetamide hydrochloride] the figure was 88.9 ± 10.4%.

For `NCCCCNC(=O)CN1C(=O)CCCc2ccccc21` [2s, N-(4-Aminobutyl)-2-(2-oxo-2,3,4,5-tetrahydro-1H-benzo[b]azepin-1-yl)acetamide hydrochloride], the activity at 30 µM in assay [1] amounted to 104 ± 5.3%.

Turning to `O=C(CN1C(=O)CCCc2ccccc21)NCCN1CCOCC1` [2t, N-(2-Morpholinoethyl)-2-(2-oxo-2,3,4,5-tetrahydro-1H-benzo[b]azepin-1-yl)acetamide hydrochloride], the activity at 30 µM in assay [1] was 91 ± 3.9%. In addition, the viability at 20 µM in assay [2] turned out to be 71.2 ± 1.5%. For `CN1CCN(CCNC(=O)CN2C(=O)CCCc3ccccc32)CC1` [2u, N-[2-(4-Methylpiperazin-1-yl)ethyl]-2-(2-oxo-2,3,4,5-tetrahydro-1H-benzo[b]azepin-1-yl)acetamide dihydrochloride] the same measures were 106 ± 9.8% and 85 ± 10.6%. The matching figures for `CN1CCN(C(=O)CN2C(=O)CCCc3ccccc32)CC1` [2v, 1-[2-(4-Methylpiperazin-1-yl)-2-oxoethyl]-1,3,4,5-tetrahydro-2H-benzo[b]azepin-2-one hydrochloride]: 98.2 ± 13.7% and 72.4 ± 0.3%. Regarding `CC(C)(C)OC(=O)N1CCN(CCNC(=O)CN2C(=O)C(C)(C)CCc3ccccc32)CC1` [3b, tert-Butyl 4-{2-[2-(3,3-dimethyl-2-oxo-2,3,4,5-tetrahydro-1H-benzo[b]azepin-1-yl)acetamido]ethyl}piperazine-1-carboxylate], the activity at 30 µM in assay [1] is 107 ± 12.6%. The viability at 20 µM in assay [2] stood at 94.8 ± 2.5%. For `CN(CCNC(=O)CN1C(=O)C(C)(C)CCc2ccccc21)C(=O)OC(C)(C)C` [3c, tert-Butyl {2-[2-(3,3-dimethyl-2-oxo-2,3,4,5-tetrahydro-1H-benzo[b]azepin-1-yl)acetamido]ethyl}(methyl)carbamate], the activity at 30 µM in assay [1] amounted to 104 ± 7.1%. In the case of `CNCCNC(=O)CN1C(=O)C(C)(C)CCc2ccccc21` [3e, 2-(3,3-Dimethyl-2-oxo-2,3,4,5-tetrahydro-1H-benzo[b]azepin-1-yl)-N-[2-(methylamino)ethyl]acetamide hydrochloride], the activity at 30 µM in assay [1] came out at 99.8 ± 7.1%. Turning to `CN(CCNC(=O)CN1C(=O)Cc2ccccc2-c2ccccc21)C(=O)OC(C)(C)C` [4c, tert-Butyl N-methyl-{2-[2-(6-oxo-6,7-dihydro-5H-dibenzo[b,d]azepin-5-yl)acetamido]ethyl}carbamate], in assay [1], the activity at 30 µM amounted to 87.6 ± 4.6%. For `CO/N=C1\CCC(=O)N(CC(=O)NCCN2CCN(C(=O)OC(C)(C)C)CC2)c2ccccc21` [5b, tert-Butyl (E/Z)-4-(2-{2-[5-(methoxyimino)-2-oxo-2,3,4,5-tetrahydro-1H-benzo[b]azepin-1-yl]acetamido}ethyl)piperazine-1-carboxylate], the activity at 30 µM in assay [1] amounted to 97.8 ± 13.3%. Moreover, the viability at 20 µM in assay [2] was determined as 93 ± 9.3%. Take `O=C(O)CN1C(=O)Cc2ccccc2-c2ccccc21` [compound 19, 2-(6-Oxo-6,7-dihydro-5H-dibenzo[b,d]azepin-5-yl)acetic acid]: in assay [1], the activity at 30 µM came out at 97.8 ± 6.1%. Still for that read-out and setting: with `CO/N=C1\CCC(=O)Nc2ccccc21` [compound 20, (E)-5-methoxyimino-1,3,4,5-tetrahydro-2H-benzo[b]azepin-2-one] the figure was 102 ± 2.4%; with `CO/N=C1\CCC(=O)N(CC(=O)OC(C)(C)C)c2ccccc21` [compound 21, tert-Butyl (E/Z)-2-(5-(methoxyimino)-2-oxo-2,3,4,5-tetrahydro-1H-benzo[b]azepin-1-yl)acetate], 92.4 ± 10.3%.

On to `CO/N=C1\CCC(=O)N(CC(=O)O)c2ccccc21` [compound 22, (E/Z)-2-(5-(Methoxyimino)-2-oxo-2,3,4,5-tetrahydro-1H-benzo[b]azepin-1-yl)acetic acid], for which the activity at 30 µM in assay [1] was determined as 96.7 ± 5.2%.
